Source: patent publication US10334845B2, “Olfactory ligands” (University College Cardiff Consultants Limited, priority 2015, dated 2019)
Values joined by “and” are separate entries in the source; they are usually repeats but may differ in a detail not shown here. Identical values can stand only once.

Legend:
[1] = system: grain aphids, Sitobion avenae; test: Behavioural assay, four-arm olfactometer; assay type: in vivo; settings: for Time spent in control arms (mean of 3) / Time spent in treatment arm: mean (SE), 16 min, 10 replicates; for Insect repellent / attractant activity (in words): summary statement
Protocol: The responses of individual grain aphids, Sitobion avenae, to test compounds were observed using a Perspex four-arm olfactometer (Pettersson, J.; Ent. Scand. 1, 63-73 (1970); Webster, B., et al. Animal Behav. 79, 451-457 (2010)), which was maintained at 23° C. and lit from above. A filter paper disc was laid in the bottom section of the olfactometer to provide traction for the aphid and the middle and top sections were fitted into place very tightly to give a good seal. The four arms, consisting of the barrels of disposable 10 mL syringes (Plastipak), were fitted tightly into the holes of the middle section, and filtered air was drawn through them and into the body of the olfactometer through a tube inserted into a hole in the centre of the top section and attached to a pump. The measured total flow rate was 200 mL/min and it was assumed that the flow rate through each arm was 50 mL/min. The three control arms each contained a filter paper strip to which had been applied 10 µL hexane which had been allowed to evaporate for 30 s. The treatment arm contained a filter paper strip to which the test compound in 10 μL of hexane (20-200 ng μL^−1) had been applied and left for 30 s for the hexane to evaporate. A single aphid was introduced through the central hole and the suction tube quickly reinserted. The time spent in each arm and in the central zone were recorded, using specialist software (OLFA, Udine, Italy), for the next 16 minutes. The olfactometer was rotated through 90° every 2 min to eliminate any directional bias. Each assay comprised 10 replicates and the mean time spent in treated and control arms were compared using a paired t-test (Genstat).
Data were recorded as mean (±SE) time spent in control (solvent only) or treatment arms and were analysed using Students T-test.

[2] = system: grain aphid (Sitobion avenae); settings: background statement; cited from earlier work

SMILES	Time spent in control arms (mean of 3) ([1]; dose 1.0 μg)	Time spent in treatment arm ([1]; dose 1.0 μg)	Time spent in control arms (mean of 3) ([1]; dose 2.0 μg)	Time spent in treatment arm ([1]; dose 2.0 μg)	other results
C=C1C=C[C@H](C(C)C)CCC(C)=C(F)CC1 [Comparator Compound Ih, (S)-1-fluorogermacrene D]	2.54 (0.27) min	2.62 (0.50) min	2.60 (0.26) min	2.46 (0.39) min	
CC=C1C=C[C@H](C(C)C)CCC(CC)=CCC1 [Compound Ig, (S)-14,15-dimethylgermacrene D]	2.27 (0.11) min and 2.39 (0.20) min	2.77 (0.31) min and 2.97 (0.40) min			Time spent in control arms (mean of 3) ([1]; dose 0.8 μg): 2.60 (0.22) min; Time spent in treatment arm ([1]; dose 0.8 μg): 3.38 (0.38) min; Time spent in control arms (mean of 3) ([1]; dose 1.2 μg): 1.96 (0.21) min; Time spent in treatment arm ([1]; dose 1.2 μg): 2.92 (0.23) min; Insect repellent / attractant activity (in words) [1]: strong insect attractant properties
CC1CCCC(C)CCC(C(C)C)CC1 (stereo not shown) [IV, germacrane]	2.45 (0.30) min	2.04 (0.58) min	2.39 (0.24) min	2.38 (0.50) min	
C=C1/C=C/[C@H](C(C)C)CC/C(C)=C/CC1 [Germacrene D]					Insect repellent activity (in words) [2]: repel insects
C=C1/C=C/[C@@H](C(C)C)CC/C(C)=C/CC1 [III, (R)-germacrene D]	2.57 (0.19) min	3.15 (0.53) min	1.86 (0.29) min	2.65 (0.52) min	
C=C1/C=C/[C@H](C(C)C)CC/C(C)=C/CC1 [Comparator Compound Ia, (S)-germacrene D]		1.63 (0.35) min	2.29 (0.41) min	0.50 (0.14) min	Time spent in control arms (mean of 3) ([1]; dose 0.2 μg): 2.31 (0.26) min; Time spent in treatment arm ([1]; dose 0.2 μg): 1.14 (0.25) min
C=C1C=C[C@H](C(C)C)CCC(CC)=CCC1 [Comparator Compound Ic, (S)-14-methylgermacrene D]	2.61 (0.28) min	3.27 (0.68) min	2.01 (0.23) min	1.65 (0.39) min	Time spent in control arms (mean of 3) ([1]; dose 0.2 μg): 2.21 (0.27) min; Time spent in treatment arm ([1]; dose 0.2 μg): 2.41 (0.73) min
C=C1C=C[C@H](C(C)CC)CCC(C)=CCC1 (stereo partly drawn) [Comparator Compound Ib, (S)-12-methylgermacrene D]					Time spent in control arms (mean of 3) ([1]; dose 0.9 μg): 2.21 (0.42) min; Time spent in treatment arm ([1]; dose 0.9 μg): 1.20 (0.24) min; Time spent in control arms (mean of 3) ([1]; dose 1.2 μg): 2.66 (0.17) min; Time spent in treatment arm ([1]; dose 1.2 μg): 2.13 (0.25) min
CC=C1C=C[C@H](C(C)C)CCC(C)=CCC1 [Compound If, (S)-15-methylgermacrene D]	2.52 (0.23) min	1.92 (0.31) min			Time spent in control arms (mean of 3) ([1]; dose 0.8 μg): 2.61 (0.26) min; Time spent in treatment arm ([1]; dose 0.8 μg): 1.38 (0.38) min; Insect repellent / attractant activity (in words) [1]: much greater insect repellent activity
